The subject of the assay is P388 leukemia ip, CD2F1 mice, survival T/C. The experiment in a line: NCI In Vivo Anticancer Drug Screen. Data for tumor model P388 Leukemia (intraperitoneal) in CD2F1 (CDF1) mice. The conditions noted are these: endpoint: median survival time, higher = longer survival. The procedure, abridged: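 Mice carrying the transplanted tumor received test compound or vehicle. Survival was recorded in each group, and the value is the treated-group measurement divided by that of the vehicle-treated control group.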

Where [1] appears, read: dose: 50.0 mg/kg/injection, schedule: Q01DX005 (ip), vehicle: saline with Tween-80.
[2] abbreviates: dose: 100.0 mg/kg/injection, schedule: Q01DX005 (ip), vehicle: saline with Tween-80.
Where [3] appears, read: dose: 50.0 mg/kg/injection, schedule: Q01DX005 (ip), vehicle: saline.
[4] abbreviates: dose: 100.0 mg/kg/injection, schedule: Q01DX005 (ip), vehicle: saline.
[5] abbreviates: dose: 200.0 mg/kg/injection, schedule: Q01DX005 (ip), vehicle: saline.
Setting [6] is: dose: 50.0 mg/kg/injection, schedule: Q01DX005 (ip), vehicle: Klucel (hydroxypropylcellulose) (HPC).
The mark [7] stands for this setting: dose: 100.0 mg/kg/injection, schedule: Q01DX005 (ip), vehicle: Klucel (hydroxypropylcellulose) (HPC).
The mark [8] stands for this setting: dose: 200.0 mg/kg/injection, schedule: Q01DX005 (ip), vehicle: Klucel (hydroxypropylcellulose) (HPC).
Setting [9] is: dose: 50.0 mg/kg/injection, schedule: Q01DX009 (ip), vehicle: saline.
[10] abbreviates: dose: 100.0 mg/kg/injection, schedule: Q01DX009 (ip), vehicle: saline.
Where [11] appears, read: dose: 200.0 mg/kg/injection, schedule: Q01DX009 (ip), vehicle: saline.

SMILES strings stand for the structures. “And” between values parts separate entries of the source, which are not always exact repeats. Equal values may be shown once. Toxic doses and inconclusive results are not listed. Peptide text beside a SMILES is read from it.

Regarding `CC(C)N1C(=O)C2C3C=CC(C2C1=O)C1C2C(=O)N(C(C)C)C(=O)C2C31` (stereo unspecified), the T/C is, setting by setting: (dose: 100.0 mg/kg/injection, schedule: Q01DX001 (ip), vehicle: saline with Tween-80) 99 % of control; (dose: 200.0 mg/kg/injection, schedule: Q01DX001 (ip), vehicle: saline with Tween-80) 96 % of control; (dose: 400.0 mg/kg/injection, schedule: Q01DX001 (ip), vehicle: saline with Tween-80) 89 % of control.

Take `CC(C)(C)c1cccc(C2(C)C(=O)c3ccccc3C2=O)c1`: the T/C runs as follows: (dose: 100.0 mg/kg/injection, schedule: Q04DX002 (ip), vehicle: saline) 102 % of control; (dose: 200.0 mg/kg/injection, schedule: Q04DX002 (ip), vehicle: saline) 101 % of control; (dose: 400.0 mg/kg/injection, schedule: Q04DX002 (ip), vehicle: saline) 100 % of control.

For the compound `O=C1c2cccc3cccc(c23)C(=O)N1CCc1ccccn1`, the T/C is, setting by setting: under setting [1], 107 % of control; under setting [2], 98 % of control.

For the compound `C1=[N+]2CCCC2Cc2ccc3ccccc3c21` (stereo unspecified), the T/C reads like this: (dose: 12.5 mg/kg/injection, schedule: Q04DX003 (ip), vehicle: saline) 100 % of control; (dose: 25.0 mg/kg/injection, schedule: Q04DX003 (ip), vehicle: saline) 103 % of control; (dose: 50.0 mg/kg/injection, schedule: Q04DX003 (ip), vehicle: saline) 100 % of control.

With `CC(=O)NS(=O)(=O)c1ccc(NCc2c3ccccc3nc3cc(Cl)ccc23)cc1`, the T/C (dose: 60.0 mg/kg/injection, schedule: Q01DX005 (ip), vehicle: saline with Tween-80) was 114 % of control; the T/C (dose: 120.0 mg/kg/injection, schedule: Q01DX005 (ip), vehicle: saline with Tween-80) is 102 % of control; the T/C (dose: 240.0 mg/kg/injection, schedule: Q01DX005 (ip), vehicle: saline with Tween-80) is 105 % of control.

Take `CNC(=O)OC(C)C1CCCCC1OC(=O)NC` (stereo unspecified): the T/C is, setting by setting: under setting [3], 100 % of control; under setting [4], 106 % of control; under setting [5], 100 % of control.

On to `CCOC(=O)C1=C(c2ccccc2)OC(N)=C(C#N)C1c1ccccc1Cl` (stereo unspecified), for which the T/C is 96 % of control under setting [6], 105 % of control under setting [7] and 107 % of control under setting [8].

With `Nc1ncnc2nc(CO)[nH]c12`, the T/C is 100 % of control (dose: 0.78 mg/kg/injection, schedule: Q01DX009 (ip), vehicle: saline with Tween-80); 97 % of control (dose: 1.56 mg/kg/injection, schedule: Q01DX009 (ip), vehicle: saline with Tween-80); 93 % of control (dose: 3.13 mg/kg/injection, schedule: Q01DX009 (ip), vehicle: saline with Tween-80); 91 % of control (dose: 6.25 mg/kg/injection, schedule: Q01DX009 (ip), vehicle: saline with Tween-80).

For the compound `CN1CCC(O)(c2nccc3ccccc23)CC1`, the T/C is, setting by setting: (dose: 50.0 mg/kg/injection, schedule: Q01DX001 (ip), vehicle: Klucel (hydroxypropylcellulose) (HPC)) 111 % of control; (dose: 100.0 mg/kg/injection, schedule: Q01DX001 (ip), vehicle: Klucel (hydroxypropylcellulose) (HPC)) 96 % of control.

On to `N#CN=[N+]([O-])c1ccccc1`, for which the T/C is, setting by setting: (dose: 6.25 mg/kg/injection, schedule: Q04DX003 (ip), vehicle: Klucel (hydroxypropylcellulose) (HPC)) 100 % of control; (dose: 12.5 mg/kg/injection, schedule: Q04DX003 (ip), vehicle: Klucel (hydroxypropylcellulose) (HPC)) 105 % of control; (dose: 25.0 mg/kg/injection, schedule: Q04DX003 (ip), vehicle: Klucel (hydroxypropylcellulose) (HPC)) 106 % of control and 96 % of control.

Consider `Cc1nccc(N[N+](=O)[O-])c1C`, for which the T/C reads like this: (dose: 12.5 mg/kg/injection, schedule: Q01DX009 (ip), vehicle: other) 100 % of control; (dose: 25.0 mg/kg/injection, schedule: Q01DX009 (ip), vehicle: other) 93 % of control; (dose: 50.0 mg/kg/injection, schedule: Q01DX009 (ip), vehicle: other) 117 % of control; (dose: 100.0 mg/kg/injection, schedule: Q01DX009 (ip), vehicle: other) 100 % of control; (dose: 200.0 mg/kg/injection, schedule: Q01DX009 (ip), vehicle: other) 103 % of control.

`CCC1CN2CCc3cc(OC)c(OC)cc3C2CC1Cl` (stereo unspecified): the T/C is 90 % of control (dose: 12.5 mg/kg/injection, schedule: Q01DX009 (ip), vehicle: saline); 90 % of control (dose: 25.0 mg/kg/injection, schedule: Q01DX009 (ip), vehicle: saline); 101 % of control (dose: 50.0 mg/kg/injection, schedule: Q01DX009 (ip), vehicle: saline with Tween-80); 96 % of control under setting [9].

Take `CC(NC(=O)OCc1ccccc1)C(=O)NC(C(=O)O)C(C)O` (stereo unspecified): the T/C under setting [6] is 98 % of control, the T/C under setting [7] is 99 % of control and the T/C under setting [8] was 96 % of control.

On to `O=C1C=C(Cl)C(=O)C2=C1CCCC2`, for which, under “dose: 6.25 mg/kg/injection, schedule: Q04DX002 (ip), vehicle: saline with Tween-80”, the T/C is 97 % of control.

Regarding `C1CSCN1`, the T/C by setting is: under setting [3], 107 % of control; under setting [4], 100 % of control; under setting [5], 115 % of control.

With `O=C(O)c1cc(-c2ccc(Cl)cc2)nc2cc(Cl)ccc12`, the T/C is, setting by setting: under setting [1], 98 % of control; under setting [2], 100 % of control.

As for `CN1C(=O)C(CCCN=C(N)N)NC1=S` (stereo unspecified), the T/C was 98 % of control (dose: 60.0 mg/kg/injection, schedule: Q01DX005 (ip), vehicle: saline); 111 % of control (dose: 120.0 mg/kg/injection, schedule: Q01DX005 (ip), vehicle: saline); 104 % of control (dose: 240.0 mg/kg/injection, schedule: Q01DX005 (ip), vehicle: saline).

Take `Clc1cnc(/N=C/c2ccc(/C=N/c3ncc(Cl)cc3Cl)cc2)c(Cl)c1`: the T/C runs as follows: under setting [9], 100 % of control; under setting [10], 101 % of control; under setting [11], 102 % of control.

Regarding `CNc1cn(C2OC(CO)C(O)C2O)c(=O)[nH]c1=O` (stereo unspecified), the T/C was 122 % of control under setting [3], 110 % of control under setting [4] and 105 % of control under setting [5].

Consider `CC(N)C(=O)NC(Cc1ccc(O)cc1)C(N)=O` (stereo not drawn) (H-Ala-Tyr-NH2; configuration not given here), for which the T/C runs as follows: under setting [6], 108 % of control; under setting [7], 105 % of control; under setting [8], 100 % of control.

Regarding `Cc1cc(Cl)ccc1NC(=O)C1C(=O)CC(C)(C)CC1=O`, the T/C under setting [1] was 93 % of control; the T/C under setting [2] was 101 % of control; the T/C (dose: 200.0 mg/kg/injection, schedule: Q01DX005 (ip), vehicle: saline with Tween-80) was 111 % of control.

With `N#CCc1ccccc1C#N`, the T/C was 100 % of control (dose: 12.5 mg/kg/injection, schedule: Q01DX005 (ip), vehicle: saline with Tween-80); 99 % of control (dose: 25.0 mg/kg/injection, schedule: Q01DX005 (ip), vehicle: saline with Tween-80); 101 % of control under setting [1].

As to `O=C(O)C1Cc2c([nH]c3ccccc23)C(CO)N1` (stereo unspecified), the T/C reads like this: (dose: 25.0 mg/kg/injection, schedule: Q01DX009 (ip), vehicle: suspension in saline) 107 % of control; (dose: 50.0 mg/kg/injection, schedule: Q01DX009 (ip), vehicle: suspension in saline) 104 % of control.

In the case of `COc1cc2cc(=O)n(N)c(C)c2cc1OC`, the T/C reads like this: under setting [9], 108 % of control; under setting [10], 106 % of control; under setting [11], 99 % of control.

In the case of `FC(F)(F)C1(C(F)(F)F)SC(C(F)(F)F)(C(F)(F)F)S1`, the T/C runs as follows: under setting [3], 104 % of control; under setting [4], 107 % of control; under setting [5], 104 % of control.

With `O=c1cc(CSc2ncnc3nc[nH]c23)[nH]c(=O)[nH]1`, the T/C is, setting by setting: under setting [9], 106 % of control; under setting [10], 111 % of control; under setting [11], 108 % of control.

As to `C=C1C(=O)OC2/C=C(/C)C3(O)OC(C)(CC(OC(=O)C(C)C)C12)CC3OC(C)=O` (stereo unspecified), the T/C reads like this: (dose: 25.0 mg/kg/injection, schedule: Q01DX009 (ip), vehicle: Klucel (hydroxypropylcellulose) (HPC)) 110 % of control; (dose: 50.0 mg/kg/injection, schedule: Q01DX009 (ip), vehicle: Klucel (hydroxypropylcellulose) (HPC)) 116 % of control.

Regarding `C/C(=C(/O)c1ccccc1)c1nc2ccc(Cl)cc2[nH]c1=O`, the T/C runs as follows: (dose: 60.0 mg/kg/injection, schedule: Q01DX005 (ip), vehicle: Klucel + Tween-80) 103 % of control; (dose: 120.0 mg/kg/injection, schedule: Q01DX005 (ip), vehicle: Klucel + Tween-80) 94 % of control; (dose: 240.0 mg/kg/injection, schedule: Q01DX005 (ip), vehicle: Klucel + Tween-80) 91 % of control.

The record behind these values is PubChem BioAssay AID330 (DTP/NCI, 2004).
